Results taken from publication PMC6478823, “A suite of phenotypic assays to ensure pipeline diversity when prioritizing drug-like Cryptosporidium growth inhibitors” (Nature Communications, 2019).
Where “and” joins values, the source holds several entries; their conditions need not be identical. Identical values can stand only once. Like-named read-outs stand apart in the source and are kept apart here.

Assays:
[1] = tested on: C. parvum; experiment: 48 h Cryptosporidium growth inhibition assay; assay type: cell-based, Cryptosporidium parvum; conditions: for EC90: compound added 3 h post-infection, read at 48 h; for 0 - 48 h V. villosa lectin (asexual): Mean % Inhibition (parasites): replicates 1-3 in separate columns
Source text: As a first step in developing specific Cryptosporidium mode of action assays, we conducted a series of light microscopy time-lapse and transmission electron microscopy (TEM) time course experiments in order to precisely define C. parvum development within the HCT-8 cell culture system. […] This synchronicity was exploited by modifying a previously developed high-content microscopy assay. These assay modifications enabled the evaluation of several key events within the life cycle: host cell invasion, intracellular replication, host cell egress and establishment of new parasitophorous vacuoles, and sexual differentiation. […] Since the methods all used automated liquid handling, imaging, and image analysis, the assay methods all incorporated nuclear staining to monitor host cell numbers and enable recognition of HCT-8 cell monolayer damage, for example as an artifact from a malfunctioning plate washer or from unanticipated cytotoxicity of the compounds.
Human ileocecal adenocarcinoma (HCT-8) cells were purchased from ATCC (catalog# CCL-244) and cultured in ATCC modified RPMI-1640 medium (Gibco, catalog# A10491–01), supplemented with 10% heat-inactivated fetal bovine serum (Sigma-Aldrich, catalog# 12306C) and 120 U/mL penicillin and 120 μg/mL streptomycin (Gibco, catalog# 15140-122) (culture media). […] For all experiments, HCT-8 cells between passages 9 and 39 were used. C. parvum (Iowa isolate) oocysts were purchased from Bunchgrass Farm (Deary, ID), stored at 4 °C and used within 5 months of collection from an infected calf. To induce excystation, oocysts were first treated with 10 mM hydrochloric acid for 10 min at 37 °C, spun at 14,000×g for 4.5 min at room temperature, treated with 2 mM sodium taurocholate for 10 min at 16 °C, spun as before, and resuspended in culture media for infection.
A modification of a previously reported immunofluorescence assay was used to determine the EC50 and EC90 of compounds[13]. HCT-8 cells were grown to ≥ 90% confluence in 384-well plates (Corning, catalog# 353962) and infected with 5500 oocysts per well after they were induced for excystation as described above. Different concentrations of compounds were added 3 h post-infection and plates were incubated for another 45 h in a 5% CO2 incubator at 37 °C. Wells were then washed 3 times with PBS containing 111 mM D-galactose (PBS-D-gal), fixed with 4% paraformaldehyde (PFA) in PBS for 15 min at room temperature, permeabilized with 0.25% Triton X-100 for 10 min at 37 °C, washed 3 times with PBS with 0.1% Tween 20, and blocked with 4% bovine serum albumin (BSA) in PBS for 2 h at 37 °C or 4 °C overnight. Parasitophorous vacuoles were stained with 1.33 µg/mL of fluorescein-labeled Vicia villosa lectin (Vector Laboratories, catalog# FL-1231) diluted in 1% BSA in PBS with 0.1% Tween 20 for 1 h at 37 °C, followed by addition of Hoechst 33258 (AnaSpec, catalog# AS-83219) at 0.09 mM diluted in water for another 15 min at 37 °C. Wells were then washed 5 times with PBS containing 0.1% Tween 20. A Nikon Eclipse Ti2000 epifluorescence microscope with an automated stage was programmed using NIS-Elements Advanced Research software (Nikon, USA) to focus on the center of each well and take a 3 × 3 or 6 × 6 composite image using an EXi blue fluorescence microscopy camera (QImaging, Canada) with a 20 × objective (NA = 0.45). Nuclei and parasite images were separately exported as.tif files and analyzed using macros developed on the ImageJ platform (National Institutes of Health)[13].

[2] = tested on: purified N-WASp; design: method as in PMID 15235593; conditions: at 10 µM; cited from earlier work
[3] = tested on: C. parvum; experiment: Egress, motility, reinvasion assay (PV ratio); conditions: compound at EC90; for Egress and Reinvasion Assay: Mean PV ratios (19.5h:6h), Average: average of replicates; for Egress and Reinvasion Assay: Mean PV ratios (19.5h:6h), Replicate 1a: single replicate 1; for Egress and Reinvasion Assay: Mean PV ratios (19.5h:6h), Replicate 2a: single replicate 2; for Egress and Reinvasion Assay: Mean PV ratios (19.5h:6h), Replicate 3a: single replicate 3; for Egress and Reinvasion Assay: Mean PV ratios (19.5h:6h), Replicate 4a: single replicate 4
Description: For quantification of parasitophorous vacuoles over time, HCT-8 cells were grown to greater than 90% confluence in 384-well plates and infected with 11,000 oocysts after triggering excystation.

[4] = tested on: C. parvum; assay type: cell-based, Cryptosporidium parvum; conditions: compound at EC90; for Invasion Assay: Mean % Inhibition (parasites), Average: average of replicates; for effect on host cell invasion / parasitophorous vacuole formation: result in words; for Invasion Assay: Mean % Inhibition (parasites), Replicate 1a: single biological replicate 1; for Invasion Assay: Mean % Inhibition (parasites), Replicate 2a: single biological replicate 2
Description: The first step in infection is host cell invasion, which involves a complex process encompassing oocyst excystation, parasite motility, adhesion, and parasitophorous vacuole formation (Fig. 2a). Our strategy to assay for compounds affecting invasion was simply to expose C. parvum to compounds immediately after triggering excystation and throughout the invasion process, and then enumerate the parasite vacuoles after 3 h, prior to allowing the parasites to replicate (summarized in Fig. 2b).
Fig. 2 Invasion Assay. a Overview of life cycle stage investigated during the invasion assay. Representative TEM images of a C. parvum oocyst and HCT-8 cell shortly after infection (Scale bar = 500 nm). b Schematic of experimental design. […] Each point represents the mean and SD of at least two biological replicates with four technical replicates per experiment.
C. parvum invasion inhibition was measured by modifying the 48 h growth inhibition assay described above. […] In parallel, Iowa strain oocysts were excysted. […] Assay plates were incubated at 37 °C and 5% CO2 for 3 h.

[5] = tested on: Cryptosporidium; conditions: cited from earlier work
[6] = tested on: C. parvum; conditions: cited from earlier work; for activity in NSG mouse model: ref Jumani, et al. 2018. AAC.
[7] = tested on: Cryptosporidium; design: method as in Gorla, et al. 2014. AAC.; conditions: ref Gorla, et al. 2014. AAC.; cited from earlier work
[8] = Cryptosporidium parvum, HCT-8, read-out: Regular 3 to 48 h assay in vitro EC90, C. parvum in HCT-8 cells
[9] = read-out: Regular 3 to 48 h assay in vitro EC90, C. parvum in HCT-8 cells
[10] = ref Love, et al. 2017. PLoS NTD.

Row | SMILES | EC90 [1, 8] | EC90 [1, 9] | Egress and Reinvasion Assay: Mean PV ratios (19.5h:6h), Average [3] | Egress and Reinvasion Assay: Mean PV ratios (19.5h:6h), Replicate 1a [3] | Egress and Reinvasion Assay: Mean PV ratios (19.5h:6h), Replicate 2a [3] | Egress and Reinvasion Assay: Mean PV ratios (19.5h:6h), Replicate 3a [3] | Egress and Reinvasion Assay: Mean PV ratios (19.5h:6h), Replicate 4a [3] | Invasion Assay: Mean % Inhibition (parasites), Average [4] | Invasion Assay: Mean % Inhibition (parasites), Replicate 1a [4] | Invasion Assay: Mean % Inhibition (parasites), Replicate 2a [4] | further results
1 | CN(C)C[C@H](O)Cn1c2ccc(Br)cc2c2cc(Br)ccc21 (racemic) [Wiskostatin] | 11.3 µM | 11.3 µM | 1.04 | 1.34 | 0.98 | 0.80 | 1.04 | 88.58% | 90% | 92% | inhibition of purified N-WASp [2]: inhibit purified N-WASp; effect on host cell invasion / parasitophorous vacuole formation [4]: inhibited parasitophorous vacuole formation; effect on host cell invasion / parasitophorous vacuole formation ([4]; listed as wiskostatin): active; Invasion Assay: Mean % Inhibition (parasites), Replicate 3a ([4]; single biological replicate 3): 82%; Invasion Assay: Mean % Inhibition (parasites), Replicate 4a ([4]; single biological replicate 4): 90%
2 | CCOc1ccc2cc(-c3nn(CC4CCN(C)CC4)c4ncnc(N)c34)ccc2c1 [BKI-1294] |  | 22.4 µM | 1.49 | 1.81 | 1.18 |  |  | -6.64% | 12% | -26% | anticryptosporidial activity in the acute IFN-γ knockout mouse infection model ([5]; ref Castellanos-Gonzalez, et al. 2013. JID. and Love, et al. 2017. PLoS NTD.): previously demonstrated anticryptosporidial activity
3 | CC(C)/N=c1\cc2n(-c3ccc(Cl)cc3)c3ccccc3nc-2cc1Nc1ccc(Cl)cc1 [Clofazimine] | 19.6 µM |  | 0.77 | 1.03 | 1.03 | 0.51 | 0.49 | 66.45% | 65% | 68% | efficacy in chronic NOD SCID gamma (NSG) mouse model [6]: not efficacious; activity in NOD SCID γ mouse model [6, 10]: inactive; efficacy in acute, self-resolving IFN-γ KO mouse model [5]: efficacious; activity in IFN-γ knockout mouse model [5, 10]: active
4 | O=C(Nc1ccc(Cl)cc1)N1CCN(c2ccc3nncn3n2)CC1 [D-1] |  | 5.1 µM | 1.86 | 1.12 | 1.70 | 3.12 | 1.50 | -25.16% | -22% | -29% | 0 - 48 h V. villosa lectin (asexual): Mean % Inhibition (parasites) ([1]; D-1 at log conc (µM) 0.00): -13.99% and -26.93% and 12.39%; 0 - 48 h V. villosa lectin (asexual): Mean % Inhibition (parasites) ([1]; D-1 at log conc (µM) 0.30): 44.90% and 34.43% and 28.35%; 0 - 48 h V. villosa lectin (asexual): Mean % Inhibition (parasites) ([1]; D-1 at log conc (µM) 0.48): 62.14% and 71.97% and 62.62%; 0 - 48 h V. villosa lectin (asexual): Mean % Inhibition (parasites) ([1]; D-1 at log conc (µM) 0.60): 81.17% and 79.33% and 75.56%; 0 - 48 h V. villosa lectin (asexual): Mean % Inhibition (parasites) ([1]; D-1 at log conc (µM) 0.85): 91.46% and 90.48% and 90.58%; 0 - 48 h V. villosa lectin (asexual): Mean % Inhibition (parasites) ([1]; D-1 at log conc (µM) 1.08): 93.34% and 92.97% and 93.35%; 0 - 48 h V. villosa lectin (asexual): Mean % Inhibition (parasites) ([1]; D-1 at log conc (µM) 1.40): 93.98% and 94.31% and 94.76%; 0 - 48 h V. villosa lectin (asexual): Mean % Inhibition (parasites) ([1]; D-1 at log conc (µM) -0.70): -20.95% and -21.90% and -17.53%; 0 - 48 h V. villosa lectin (asexual): Mean % Inhibition (parasites) ([1]; D-1 at log conc (µM) -1.40): -23.49% and -23.30% and -25.37%; EC50 ([1]; read-out: 0 − 48 h V. villosa lectin (asexual): EC50, asexual growth assay, first 48 h, range in brackets): 2.1 µM; efficacy in chronic NSG mouse model [6]: efficacious; activity in NSG mouse model [6]: Active; efficacy in acute IFN-γ KO mouse model [5]: efficacious
5 | CC(=NOCCN)c1cccc(C(C)(C)NC(=O)Nc2ccc(Cl)c(C(F)(F)F)c2)c1 [P257] |  | 34.3 µM | 0.84 | 1.06 | 0.97 | 0.68 | 0.65 | 9.88% | 4% | 16% | efficacy in the acute IL-12 knockout mouse model of cryptosporidiosis [7]: efficacious
6 | NC[C@@H]1O[C@H](O[C@H]2[C@@H](O)[C@H](O[C@@H]3[C@@H](O)[C@H](N)C[C@H](N)[C@H]3O[C@H]3O[C@H](CO)[C@@H](O)[C@H](O)[C@H]3N)O[C@@H]2CO)[C@H](N)[C@@H](O)[C@@H]1O [Paromomycin] | 2390 µM |  | 2.15 | 2.19 | 2.11 |  |  | -28.42% | -32% | -25% | activity in NSG mouse model [6]: active; effect on host cell invasion / parasitophorous vacuole formation [4]: no significant effect on parasitophorous vacuole formation
7 | [H]/N=C(/NCCCCC)N/N=C/c1c[nH]c2ccc(OC)cc12 [Tegaserod] | 10.3 µM |  | 1.01 | 0.96 | 1.06 |  |  | 13.93% | 26% | 2% | Sporozoite invasion ([4]; yes/no grouping by phenotypic assay result): no
